Results: US20230080811A1 (priority 2020, published 2023)
Where a name gives a salt, the structure may show the parent alone.

Test: In vivo pharmacokinetic investigation, subcutaneous injection, plasma by LC-MS
Parameters: species or system rat
Settings: in rats, inferred from PK and duration of efficacy
Description: The obtained pharmaceutical composition was subcutaneously injected into male SD rats. Blood was collected at predetermined time points. The content of the drug in plasma was determined by LC-MS method, and the pharmacokinetics in vivo was investigated.
Experimental animals: male SD rats with a weight of 200-300 g, source: […] OF MATERIA MEDICA, CHINESE ACADEMY OF SCIENCES;
Experimental grouping: Rats were randomly divided into groups according to the following table, with 6 rats in each group;
Experimental procedure: Rats were subcutaneously injected, and at a predetermined time point, 0.5 ml of blood was collected from the orbit of the rat and placed in a centrifuge tube with heparin sodium anticoagulation. The tube was centrifuged at 3000 rpm for 10 min to separate the plasma, and the plasma concentration was detected by LC-MS method.
The pharmacokinetic (PK) parameters of the compositions were calculated, and the results were statistically analyzed by t-test.

onset concentration: about 20 ng/ml
Compound: CCCN1CCCC[C@H]1C(=O)Nc1c(C)cccc1C [ropivacaine hydrochloride]
